Results published in publication PMC10817512, “OSMAC-Based Discovery and Biosynthetic Gene Clusters Analysis of Secondary Metabolites from Marine-Derived Streptomyces globisporus SCSIO LCY30” (Marine Drugs, 2023).
In brackets after ≈: the same amount, converted by molar mass. Like-named read-outs stand apart in the source and are kept apart here.

Legend:
[1] = system: methicillin-resistant Staphylococcus aureus; design: method as in PMID 27097765; conditions: ref [24]; cited from earlier work
[2] = system: Staphylococcus lentus; design: method as in PMID 18396903; conditions: ref [35]; cited from earlier work
[3] = system: Bacillus subtilis; design: method as in PMID 18396903; conditions: ref [35]; cited from earlier work
[4] = system: TNBC cell lines MDA-MB-231, MDA-MB-468, and Bt-549; test: Cytotoxicity, span over TNBC cell lines; type: cell-based; conditions: Homo sapiens; span over MDA-MB-231, MDA-MB-468 and Bt-549; read-out: IC50 values, range against TNBC cell lines
From the text: (§1) The cell growth inhibitory activities of compounds 1–3 against fourteen different human cell lines (human liver cell line LX-2; hepatocellular cancer line HEPG2; human intestinal epithelial cell line NCM460; colorectal cancer cell lines HCT116 and SW480; normal human breast cell line MCF-10A; breast cancer cell line MCF7; triple-negative breast cancer cell lines MDA-MB-231, MDA-MB-468, and Bt-549; human umbilical vein endothelial cell line; lung cancer cell line A549; cervical cancer cell line Hela; and cholangiocarcinoma cell line RBE) were tested according to the previously published methods. SPSS software version 22.0 was used to test the IC50 values. Cisplatin and adriamycin were used as positive control agents, and all the experiments were carried out in triplicate.

[5] = system: Staphylococcus aureus 669; test: Antibacterial MIC, CLSI microdilution; type: cell-based; conditions: Staphylococcus aureus 669; 37 °C, 16–18 h; read-out: MIC
Procedure: (§2) An antibacterial activity test of compounds 1–3 was conducted according to a standard protocol provided by the Clinical and Laboratory Standards Institute (CLSI). Sixteen bacterial strains were used, including Staphylococcus aureus ATCC 29213, Staphylococcus aureus 16339, Staphylococcus aureus 1862, Staphylococcus aureus 3090, Staphylococcus aureus 991, Staphylococcus aureus 669, Staphylococcus aureus 745324, Staphylococcus aureus 16162, Staphylococcus aureus (cfr) GDE4P037P, Enterococcus faecalis ATCC 29212, Enterococcus faecalis 36950, Micrococcus luteus ML01, MRSA, Bacillus subtilis BS01, Enterococcus gallinarum 5F52C, and Enterococcus faecium 36711. Compounds 1–3 were dissolved in DMSO at a concentration of 3.2 mg/mL, and vancomycin and ampicilin were used as antibacterial control agents. […] All the assays were carried out in triplicate.

[6] = system: Enterococcus faecium 36711; test: Antibacterial MIC, CLSI microdilution; type: cell-based; conditions: Enterococcus faecium 36711; 37 °C, 16–18 h; read-out: MIC
Procedure: as §2

[7] = system: Staphylococcus aureus ATCC 29213; test: Antibacterial MIC, CLSI microdilution; type: cell-based; conditions: ATCC29213; Staphylococcus aureus ATCC 29213; 37 °C, 16–18 h; read-out: MIC
Procedure: as §2

[8] = system: Staphylococcus aureus 745324; test: Antibacterial MIC, CLSI microdilution; type: cell-based; conditions: Staphylococcus aureus 745324; 37 °C, 16–18 h; read-out: MIC
Procedure: as §2

[9] = system: Staphylococcus aureus 991; test: Antibacterial MIC, CLSI microdilution; type: cell-based; conditions: Staphylococcus aureus 991; 37 °C, 16–18 h; read-out: MIC
Procedure: as §2

[10] = system: Staphylococcus aureus 16162; test: Antibacterial MIC, CLSI microdilution; type: cell-based; conditions: Staphylococcus aureus 16162; 37 °C, 16–18 h; read-out: MIC
Procedure: as §2

[11] = system: Enterococcus gallinarum 5F52C; test: Antibacterial MIC, CLSI microdilution; type: cell-based; conditions: Enterococcus gallinarum 5F52C; 37 °C, 16–18 h; read-out: MIC
Procedure: as §2

[12] = system: Staphylococcus aureus (cfr) GDE4P037P; test: Antibacterial MIC, CLSI microdilution; type: cell-based; conditions: Staphylococcus aureus (cfr) GDE4P037P; 37 °C, 16–18 h; read-out: MIC
Procedure: as §2

[13] = system: Staphylococcus aureus 1862; test: Antibacterial MIC, CLSI microdilution; type: cell-based; conditions: Staphylococcus aureus 1862; 37 °C, 16–18 h; read-out: MIC
Procedure: as §2

[14] = system: Staphylococcus aureus 3090; test: Antibacterial MIC, CLSI microdilution; type: cell-based; conditions: Staphylococcus aureus 3090; 37 °C, 16–18 h; read-out: MIC
Procedure: as §2

[15] = system: Enterococcus faecalis ATCC 29212; test: Antibacterial MIC, CLSI microdilution; type: cell-based; conditions: ATCC29212; Enterococcus faecalis ATCC 29212; 37 °C, 16–18 h; read-out: MIC
Procedure: as §2

[16] = system: Bacillus subtilis BS01; test: Antibacterial MIC, CLSI microdilution; type: cell-based; conditions: Bacillus subtilis BS01; 37 °C, 16–18 h; read-out: MIC
Procedure: as §2

[17] = system: Micrococcus luteus ML01; test: Antibacterial MIC, CLSI microdilution; type: cell-based; conditions: 37 °C, 16–18 h
Procedure: as §2

[18] = system: Staphylococcus aureus 16339; test: Antibacterial MIC, CLSI microdilution; type: cell-based; conditions: Staphylococcus aureus 16339; 37 °C, 16–18 h; read-out: MIC
Procedure: as §2

[19] = system: Enterococcus faecalis 36950; test: Antibacterial MIC, CLSI microdilution; type: cell-based; conditions: Enterococcus faecalis 36950; 37 °C, 16–18 h; read-out: MIC
Procedure: as §2

[20] = system: lung cancer cell line A549; test: Cell growth inhibitory (cytotoxic) activity assay; type: cell-based, human; conditions: Homo sapiens
From the text: as §1

[21] = system: cervical cancer cell line Hela; test: Cell growth inhibitory (cytotoxic) activity assay; type: cell-based, human; conditions: Homo sapiens
From the text: as §1

[22] = system: triple-negative breast cancer cell line MDA-MB-468; test: Cell growth inhibitory (cytotoxic) activity assay; type: cell-based, human; conditions: Homo sapiens; MDA-MB-468 (TNBC)
From the text: as §1

[23] = system: hepatocellular cancer line HEPG2; test: Cell growth inhibitory (cytotoxic) activity assay; type: cell-based, human; conditions: Homo sapiens
From the text: as §1

[24] = system: colorectal cancer cell line SW480; test: Cell growth inhibitory (cytotoxic) activity assay; type: cell-based, human
From the text: as §1

[25] = system: triple-negative breast cancer cell line Bt-549; test: Cell growth inhibitory (cytotoxic) activity assay; type: cell-based, human; conditions: Homo sapiens; Bt-549 (TNBC)
From the text: as §1

[26] = system: cholangiocarcinoma cell line RBE; test: Cell growth inhibitory (cytotoxic) activity assay; type: cell-based, human; conditions: Homo sapiens
From the text: as §1

[27] = system: colorectal cancer cell line HCT116; test: Cell growth inhibitory (cytotoxic) activity assay; type: cell-based, human; conditions: Homo sapiens, HCT-116
From the text: as §1

[28] = system: triple-negative breast cancer cell line MDA-MB-231; test: Cell growth inhibitory (cytotoxic) activity assay; type: cell-based, human; conditions: Homo sapiens; MDA-MB-231 (TNBC)
From the text: as §1

[29] = system: MRSA; test: Antibacterial MIC, CLSI microdilution; type: cell-based, Staphylococcus aureus; conditions: Staphylococcus aureus, 37 °C, 16–18 h, read-out: MIC
Procedure: as §2

[30] = system: human intestinal epithelial cell line NCM460; test: Cell growth inhibitory (cytotoxic) activity assay; type: cell-based; conditions: Homo sapiens; NCM460 (normal intestinal epithelial cell line)
From the text: as §1

[31] = system: human liver cell line LX-2; test: Cell growth inhibitory (cytotoxic) activity assay; type: cell-based; conditions: LX-2 (human liver cell line)
From the text: as §1

[32] = system: human umbilical vein endothelial cell line HUVEC; test: Cell growth inhibitory (cytotoxic) activity assay; type: cell-based
From the text: as §1

[33] = system: normal human breast cell line MCF-10A; test: Cell growth inhibitory (cytotoxic) activity assay; type: cell-based; conditions: MCF-10A (normal human breast cell line)
From the text: as §1

[34] = system: fourteen human cell lines; test: Cytotoxicity, span over the whole cell panel; type: cell-based; conditions: span of the IC50 values over all fourteen cell lines, read-out: IC50 values, range against fourteen human cell lines
From the text: as §1

[35] = system: Staphylococcus simulans AKA1; test: Antibacterial MIC, CLSI microdilution; type: cell-based; conditions: Staphylococcus simulans AKA1; 37 °C, 16–18 h; read-out: MIC
[36] = system: breast cancer cell line MCF7; test: Cell growth inhibitory (cytotoxic) activity assay; type: cell-based, human; conditions: Homo sapiens
From the text: SPSS software version 22.0 was used to test the IC50 values.

(-)-Streptophenazine B
MIC [1]: 4.2 µg/mL

streptophenazine C
MIC [2]: 46.9 µg/mL | MIC [3]: 15.6 µg/mL

C[C@]1(O)CC(=O)c2c(cc(O)c3c2C(=O)c2cccc(O)c2C3=O)C1 [Rabelomycin (3), rabelomycin]
IC50 [4]: 2.18 to 8.67 µM | MIC [5]: 16 µg/mL (≈ 47.3 µM) | MIC [6]: 32 µg/mL (≈ 94.6 µM) | MIC [7]: 8 µg/mL (≈ 23.6 µM) | MIC [8]: 8 µg/mL (≈ 23.6 µM) | MIC [9]: 16 µg/mL (≈ 47.3 µM) | MIC [10]: 8 µg/mL (≈ 23.6 µM) | MIC [11]: 32 µg/mL (≈ 94.6 µM) | MIC [12]: 4 µg/mL (≈ 11.8 µM) | MIC [13]: 8 µg/mL (≈ 23.6 µM) | MIC [14]: 8 µg/mL (≈ 23.6 µM) | MIC [15]: 8 µg/mL (≈ 23.6 µM) | MIC [16]: 4 µg/mL (≈ 11.8 µM) | MIC ([17]; Micrococcus luteus ML01): 2 µg/mL (≈ 5.91 µM) | MIC ([17]; Micrococcus luteus, ML01, Micrococcus luteus ML01, read-out: MIC): 1 to 2 µg/mL (≈ 2.96 to 5.91 µM) | MIC [18]: 8 µg/mL (≈ 23.6 µM) | MIC [19]: 8 µg/mL (≈ 23.6 µM) | IC50 [20]: 5.97 µM | IC50 [21]: 16.1 µM | IC50 [22]: 2.18 µM | IC50 [23]: 8.64 µM | IC50 ([24]; Homo sapiens, SW480 (colorectal cancer)): 1.57 µM | selective index (SI) ([24]; SW480 versus normal intestinal epithelial cell line NCM460): 4.49 | IC50 [25]: 7.85 µM | IC50 [26]: 4.23 µM | IC50 [27]: 4.72 µM | IC50 [28]: 8.67 µM | MIC [29]: 8 µg/mL (≈ 23.6 µM) | IC50 [30]: 7.05 µM | IC50 [31]: 13.4 µM | IC50 [32]: 10.9 µM | IC50 [33]: 11.3 µM | IC50 [34]: 1.57 to 16.1 µM | MIC [35]: 16 µg/mL (≈ 47.3 µM) | IC50 [36]: 4.48 µM
